Measured values as given in BigSolDB 2.1.

Nc1c(Cl)cc([N+](=O)[O-])cc1Cl
solubility (mole fraction)
Conditions | 278.15 K | 283.15 K | 288.15 K | 293.15 K | 298.15 K | 303.15 K | 308.15 K | 313.15 K | 318.15 K | 323.15 K
in 1,4-dioxane | – | – | – | 0.0251 | 0.0292 | 0.0337 | 0.0389 | 0.0447 | 0.0513 | 0.0598
in NMP | 0.135 | 0.141 | 0.149 | 0.159 | 0.169 | 0.179 | 0.189 | 0.199 | 0.211 | 0.227
in acetonitrile | 0.00152 | 0.00176 | 0.00211 | 0.00249 | 0.00293 | 0.00352 | 0.00411 | 0.00487 | 0.00577 | 0.00665
in cyclohexane | 0.000119 | 0.000147 | 0.000185 | 0.000236 | 0.000301 | 0.000389 | 0.000501 | 0.000617 | 0.00074 | 0.000906
in ethanol | 0.000879 | 0.00102 | 0.00123 | 0.00149 | 0.00183 | 0.00222 | 0.00268 | 0.00325 | 0.00384 | 0.00455
in ethyl acetate | 0.0085 | 0.00938 | 0.0109 | 0.0126 | 0.0153 | 0.0177 | 0.0208 | 0.025 | 0.0291 | 0.0336
in ethylene glycol | 0.000815 | 0.000969 | 0.00117 | 0.00139 | 0.00167 | 0.00195 | 0.00236 | 0.00281 | 0.00338 | 0.00412
in isopropanol | – | 0.00093 | 0.00111 | 0.00133 | 0.00162 | 0.00195 | 0.00234 | 0.00281 | 0.00338 | 0.00413
in methanol | 0.000705 | 0.000814 | 0.000987 | 0.00121 | 0.0015 | 0.00182 | 0.00224 | 0.00267 | 0.00314 | 0.00377
in n-butanol | 0.00121 | 0.00148 | 0.00172 | 0.00216 | 0.0026 | 0.00308 | 0.00378 | 0.00446 | 0.00543 | 0.00638
in n-propanol | 0.00102 | 0.00123 | 0.00146 | 0.00176 | 0.00216 | 0.00258 | 0.00307 | 0.00364 | 0.00441 | 0.00546
in water | 1.88e-06 | 2.53e-06 | 3.43e-06 | 4.76e-06 | 6.43e-06 | 8.31e-06 | 1.06e-05 | 1.37e-05 | 1.72e-05 | 2.18e-05
